Experiments:
[1] = molecular target: T1, AqdB (His8-MBP-AqdB) (Mycobacteroides abscessus, UniProt B1MFK1); test: biotransformation by recombinant E. coli cells, HPLC; format: cell-based; conditions: 20 μM HHQ, LB medium; E. coli Rosetta without aqdB did not convert HHQ
T1 construct: His8-MBP fusion, pET28b(+), expressed in E. coli Rosetta(DE3) whole cells

[2] = test system: CCCCCCCc1[nH]c2ccccc2c(=O)c1O; test: purified protein; format: biochemical, Mycobacteroides abscessus; conditions: apparent, co-substrate O2, 50 mM Tris, 2 mM EDTA, 10% PEG 1500, 4% (v/v) DMSO, pH 8.0, 30°C

T1 sequence (B1MFK1 whole entry, the tested form may be a part): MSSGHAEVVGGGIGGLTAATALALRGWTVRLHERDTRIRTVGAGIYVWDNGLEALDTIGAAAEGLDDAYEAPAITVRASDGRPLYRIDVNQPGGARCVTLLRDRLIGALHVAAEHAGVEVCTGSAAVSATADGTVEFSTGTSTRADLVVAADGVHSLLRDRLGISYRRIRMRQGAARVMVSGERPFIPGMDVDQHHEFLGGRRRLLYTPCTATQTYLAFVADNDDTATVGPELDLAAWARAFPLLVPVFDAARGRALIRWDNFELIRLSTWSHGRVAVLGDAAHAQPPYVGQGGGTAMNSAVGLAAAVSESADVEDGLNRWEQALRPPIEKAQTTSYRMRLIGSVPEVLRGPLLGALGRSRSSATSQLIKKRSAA

Molecule | biotransformation by recombinant E. coli cells, HPLC [1] | Km [2] [µM] | kcat [2] [s⁻¹]
CCCCCCCc1[nH]c2ccccc2c(=O)c1O [PQS, 2-heptyl-3-hydroxy-4(1H)-quinolone] | E. coli cells producing the His8-MBP-AqdB protein converted HHQ to PQS | – | –
CCCCCCCc1cc(=O)c2ccccc2[nH]1 [HHQ, 2-heptyl-4(1H)-quinolone] | E. coli cells producing the His8-MBP-AqdB protein converted HHQ to PQS | – | –
AqdC (AqdC^I) (Mycobacteroides abscessus ATCC 19977) | – | 37.2 ± 9.8 | 97.8 ± 19.1

— paper PMC5332414, “Mycobacterium abscessus subsp. abscessus Is Capable of Degrading Pseudomonas aeruginosa Quinolone Signals” (Frontiers in Microbiology, 2017)
